Assay results: PubChem BioAssay (NCI)
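Each compound was tested at five concentrations against cells in 96-well plates for 48 hours. GI50 = concentration required for 50% inhibition of growth. TGI: concentration producing complete growth inhibition.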

How the values were obtained:
Assay in all cases: inhibition of tumour cell growth, NCI panel, 48 h
NCI-H23 lung = system: NCI-H23 lung
SF-295 CNS = system: SF-295 CNS
EKVX NSCLC = system: EKVX NSCLC
NCI/ADR-RES ovarian = system: NCI/ADR-RES ovarian
BT-549 breast = system: BT-549 breast
SNB-19 CNS = system: SNB-19 CNS
OVCAR-3 ovarian = system: OVCAR-3 ovarian
KM12 colon = system: KM12 colon
SF-268 CNS = system: SF-268 CNS
HOP-92 NSCLC = system: HOP-92 NSCLC
MDA-MB-435 = system: MDA-MB-435
U251 CNS = system: U251 CNS
COLO 205 colon = system: COLO 205 colon
OVCAR-8 ovarian = system: OVCAR-8 ovarian
MDA-MB-231 breast = system: MDA-MB-231 breast
SNB-75 CNS = system: SNB-75 CNS
SK-OV-3 ovarian = system: SK-OV-3 ovarian
NCI-H460 lung = system: NCI-H460 lung
T-47D breast = system: T-47D breast
HS 578T breast = system: HS 578T breast
HCT-15 colon = system: HCT-15 colon
HCT-116 colon = system: HCT-116 colon
SK-MEL-5 melanoma = system: SK-MEL-5 melanoma
MALME-3M melanoma = system: MALME-3M melanoma
M14 melanoma = system: M14 melanoma
OVCAR-5 ovarian = system: OVCAR-5 ovarian
TK-10 renal = system: TK-10 renal
HCC-2998 colon = system: HCC-2998 colon
OVCAR-4 ovarian = system: OVCAR-4 ovarian
CAKI-1 renal = system: CAKI-1 renal
SF-539 CNS = system: SF-539 CNS
UO-31 renal = system: UO-31 renal
NCI-H226 lung = system: NCI-H226 lung
SR leukemia = system: SR leukemia
SW-620 colon = system: SW-620 colon
HT29 colon = system: HT29 colon
RPMI-8226 leukemia = system: RPMI-8226 leukemia
NCI-H522 lung = system: NCI-H522 lung
RXF 393 renal = system: RXF 393 renal
DU-145 prostate = system: DU-145 prostate
UACC-62 melanoma = system: UACC-62 melanoma
HL-60(TB) leukemia = system: HL-60(TB) leukemia
MCF7 breast = system: MCF7 breast
HOP-62 NSCLC = system: HOP-62 NSCLC
UACC-257 melanoma = system: UACC-257 melanoma
A549 NSCLC = system: A549 NSCLC
SK-MEL-2 melanoma = system: SK-MEL-2 melanoma
786-0 renal = system: 786-0 renal
MOLT-4 leukemia = system: MOLT-4 leukemia
ACHN renal = system: ACHN renal
PC-3 prostate = system: PC-3 prostate
A498 renal = system: A498 renal
K-562 leukemia = system: K-562 leukemia
SK-MEL-28 melanoma = system: SK-MEL-28 melanoma
SN12C renal = system: SN12C renal
CCRF-CEM leukemia = system: CCRF-CEM leukemia
IGROV1 ovarian = system: IGROV1 ovarian
LOX IMVI melanoma = system: LOX IMVI melanoma

N[C@]1(C(=O)O)C[C@@H]2C(Br)=NO[C@@H]2C1
TGI (NCI-H23 lung): > 100 µM
TGI (SF-295 CNS): > 100 µM
TGI (EKVX NSCLC): > 100 µM
TGI (NCI/ADR-RES ovarian): > 100 µM
TGI (BT-549 breast): > 100 µM
TGI (SNB-19 CNS): > 100 µM
TGI (OVCAR-3 ovarian): > 100 µM
TGI (KM12 colon): > 100 µM
TGI (SF-268 CNS): > 100 µM
TGI (HOP-92 NSCLC): > 100 µM
TGI (MDA-MB-435): > 100 µM
TGI (U251 CNS): > 100 µM
TGI (COLO 205 colon): > 100 µM
TGI (OVCAR-8 ovarian): > 100 µM
TGI (MDA-MB-231 breast): > 100 µM
TGI (SNB-75 CNS): > 100 µM
TGI (SK-OV-3 ovarian): > 100 µM
TGI (NCI-H460 lung): > 100 µM
TGI (T-47D breast): > 100 µM
TGI (HS 578T breast): > 100 µM
TGI (HCT-15 colon): > 100 µM
TGI (HCT-116 colon): > 100 µM
TGI (SK-MEL-5 melanoma): > 100 µM
TGI (MALME-3M melanoma): > 100 µM
TGI (M14 melanoma): > 100 µM
TGI (OVCAR-5 ovarian): > 100 µM
TGI (TK-10 renal): > 100 µM
TGI (HCC-2998 colon): > 100 µM
TGI (OVCAR-4 ovarian): > 100 µM
TGI (CAKI-1 renal): > 100 µM
TGI (SF-539 CNS): > 100 µM
TGI (UO-31 renal): > 100 µM
TGI (NCI-H226 lung): > 100 µM
TGI (SR leukemia): > 100 µM
TGI (SW-620 colon): > 100 µM
TGI (HT29 colon): > 100 µM
TGI (RPMI-8226 leukemia): > 100 µM
TGI (NCI-H522 lung): > 100 µM
TGI (RXF 393 renal): > 100 µM
TGI (DU-145 prostate): > 100 µM
TGI (UACC-62 melanoma): > 100 µM
TGI (HL-60(TB) leukemia): > 100 µM
TGI (MCF7 breast): > 100 µM
TGI (HOP-62 NSCLC): > 100 µM
TGI (UACC-257 melanoma): > 100 µM
TGI (A549 NSCLC): > 100 µM
TGI (SK-MEL-2 melanoma): > 100 µM
TGI (786-0 renal): > 100 µM
TGI (MOLT-4 leukemia): > 100 µM
TGI (ACHN renal): > 100 µM
TGI (PC-3 prostate): > 100 µM
TGI (A498 renal): > 100 µM

O=C1Nc2ccccc2/C1=C\c1c(Cl)nc2sccn12
GI50 (NCI-H23 lung): 4.7 µM
TGI (NCI-H23 lung): 17.1 µM
GI50 (SF-295 CNS): 1.11 µM
TGI (SF-295 CNS): 3.24 µM
GI50 (EKVX NSCLC): 1.88 µM
TGI (EKVX NSCLC): 13.8 µM
GI50 (NCI/ADR-RES ovarian): 1.26 µM
TGI (NCI/ADR-RES ovarian): 7.64 µM
GI50 (BT-549 breast): 1.15 µM
TGI (BT-549 breast): 12.7 µM
GI50 (SNB-19 CNS): 6.78 µM
TGI (SNB-19 CNS): 37.7 µM
GI50 (OVCAR-3 ovarian): 1.36 µM
TGI (OVCAR-3 ovarian): 3.73 µM
GI50 (KM12 colon): 0.67 µM
TGI (KM12 colon): 19.4 µM
GI50 (SF-268 CNS): 5.41 µM
TGI (SF-268 CNS): 29.5 µM
TGI (K-562 leukemia): > 100 µM
GI50 (HOP-92 NSCLC): 4.31 µM
TGI (HOP-92 NSCLC): 11.1 µM
GI50 (MDA-MB-435): 0.441 µM
TGI (MDA-MB-435): 1.11 µM
GI50 (SK-MEL-28 melanoma): 4.91 µM
TGI (SK-MEL-28 melanoma): 26.8 µM
GI50 (U251 CNS): 2.45 µM
TGI (U251 CNS): 8.31 µM
GI50 (COLO 205 colon): 1.11 µM
TGI (COLO 205 colon): 5.97 µM
GI50 (OVCAR-8 ovarian): 3.85 µM
TGI (OVCAR-8 ovarian): 35.8 µM
GI50 (MDA-MB-231 breast): 6.87 µM
TGI (MDA-MB-231 breast): 22.8 µM
GI50 (SNB-75 CNS): 3.23 µM
TGI (SNB-75 CNS): 8.34 µM
GI50 (SK-OV-3 ovarian): 4.18 µM
TGI (SK-OV-3 ovarian): 10.8 µM
GI50 (SN12C renal): 6.84 µM
TGI (SN12C renal): 20.6 µM
GI50 (NCI-H460 lung): 2.76 µM
TGI (NCI-H460 lung): 29.8 µM
GI50 (T-47D breast): 8.88 µM
TGI (T-47D breast): 33.9 µM
GI50 (HS 578T breast): 4.14 µM
TGI (HS 578T breast): 35.7 µM
GI50 (HCT-15 colon): 1.18 µM
TGI (HCT-15 colon): 8.46 µM
GI50 (HCT-116 colon): 1.94 µM
TGI (HCT-116 colon): 12.8 µM
GI50 (SK-MEL-5 melanoma): 1.77 µM
TGI (SK-MEL-5 melanoma): 8.51 µM
GI50 (MALME-3M melanoma): 5.48 µM
TGI (MALME-3M melanoma): > 44.7 µM
GI50 (M14 melanoma): 2.02 µM
TGI (M14 melanoma): 9.23 µM
GI50 (OVCAR-5 ovarian): 3.06 µM
TGI (OVCAR-5 ovarian): 9.39 µM
GI50 (CCRF-CEM leukemia): 2.68 µM
TGI (CCRF-CEM leukemia): 15.8 µM
GI50 (TK-10 renal): 3.24 µM
TGI (TK-10 renal): 8.21 µM
GI50 (OVCAR-4 ovarian): 13.9 µM
TGI (OVCAR-4 ovarian): > 61.4 µM
GI50 (CAKI-1 renal): 1.22 µM
TGI (CAKI-1 renal): 4.8 µM
GI50 (SF-539 CNS): 4.47 µM
TGI (SF-539 CNS): > 43.3 µM
GI50 (UO-31 renal): 2.69 µM
TGI (UO-31 renal): 16.8 µM
GI50 (NCI-H226 lung): 6.11 µM
TGI (NCI-H226 lung): 16 µM
GI50 (SR leukemia): 0.359 µM
TGI (SR leukemia): > 100 µM
GI50 (SW-620 colon): 3 µM
TGI (SW-620 colon): > 58.9 µM
GI50 (IGROV1 ovarian): 5.05 µM
TGI (IGROV1 ovarian): > 54.6 µM
GI50 (HT29 colon): 1.32 µM
TGI (HT29 colon): > 32.2 µM
GI50 (RPMI-8226 leukemia): 1.17 µM
TGI (RPMI-8226 leukemia): 4.48 µM
GI50 (NCI-H522 lung): 3.9 µM
TGI (NCI-H522 lung): 29.8 µM
GI50 (RXF 393 renal): 3.2 µM
TGI (RXF 393 renal): 19 µM
GI50 (DU-145 prostate): 5.75 µM
TGI (DU-145 prostate): 53.4 µM
GI50 (UACC-62 melanoma): 1.34 µM
TGI (UACC-62 melanoma): 11.9 µM
GI50 (MCF7 breast): 0.66 µM
TGI (MCF7 breast): 17.3 µM
GI50 (HOP-62 NSCLC): 1.82 µM
TGI (HOP-62 NSCLC): 12.9 µM
GI50 (UACC-257 melanoma): 8.03 µM
TGI (UACC-257 melanoma): > 70.8 µM
GI50 (A549 NSCLC): 3.51 µM
TGI (A549 NSCLC): > 43.1 µM
GI50 (SK-MEL-2 melanoma): 4.16 µM
TGI (SK-MEL-2 melanoma): > 41.2 µM
GI50 (786-0 renal): 1.32 µM
TGI (786-0 renal): 4.94 µM
GI50 (MOLT-4 leukemia): 3.52 µM
TGI (MOLT-4 leukemia): > 100 µM
GI50 (ACHN renal): 3.12 µM
TGI (ACHN renal): 18.2 µM
GI50 (LOX IMVI melanoma): 3.45 µM
TGI (LOX IMVI melanoma): 17.4 µM
GI50 (PC-3 prostate): 2.44 µM
TGI (PC-3 prostate): 23.9 µM
GI50 (A498 renal): 9.38 µM
TGI (A498 renal): 22.4 µM
